Several values for one entry are separate records, joined by “and”; a condition that tells them apart may be missing. Identical values can stand only once.

One assay has as its system Huh7 cells. The assay can be described thus: Apoptosis analysis by Annexin V-PI flow cytometry. To be noted: for 5-fluorouracil-induced apoptosis: 5-fluorouracil 150 µg/ml for 48 hrs; for STS-induced apoptosis: STS 1 μg/ml for 6 hrs; for Cisplatin-induced apoptosis: cisplatin 5 μg/ml for 48 hrs. Format: cell-based, human. How it is done:
Cells were treated with cisplatin (5 μg/ml) or 5-fluorouracil ([…]) for 48 hrs, apoptosis inducer staurosporin (STS, 1 μg/ml) for 6 hrs. Cells would then be subsequently harvested and stained in binding buffer, propidium iodide (PI) and FITC-conjugated Annexin V as provided by the Annexin-V FLUOS Staining Kit (Roche Diagnostics) according to manufacturer's instructions. Analysis was determined by a FACS Canto II (BD Biosciences) and FlowJo software (Tree Star, Inc.).
The effect of ANXA3 on resistance to apoptosis and chemotherapy was investigated by Annexin V-PI staining followed by flow cytometry analysis. To investigate whether ANXA3 expression in HCC confers enhanced resistance to chemotherapy and apoptosis, Huh7 cells with or without ANXA3 repressed were treated with the apoptosis inducer staurosporin (STS) or chemotherapeutic reagents, 5-fluorouracil (5-FU) or cisplatin, in vitro and analyzed for apoptotic/necrotic cells by flow cytometry. […] Upon stable ANXA3 knockdown in Huh7 and PLC8024 HCC cells, HCC cells became less resistant to the apoptosis inducer, staurosporin (STS) and chemotherapy, 5-fluorouracil and cisplatin, resulting in a significant increase in apoptotic/necrotic cells.
(In general: A flow cytometer gives signals particle by particle.)

For assay [1], the system named is HCC Huh7 cells or HCC primary cells. The assay can be described thus: Subcutaneous HCC xenograft treatment in NOD-SCID mice. Format: in vivo. How it is done:
Immunodeficient NOD-SCID mice transplanted subcutaneously with HCC Huh7 cells or HCC primary cells were injected with PBS, mouse IgG control ANXA3 mAb, cisplatin or a combination of ANXA3 mAb and cisplatin over a period of 3 weeks (FIGS. 4A, B and C).

Setting [2] is: Huh7 ANXA3 repressed clones (two clones, values not assigned).

On to `O=c1[nH]cc(F)c(=O)[nH]1` [5-fluorouracil], for which the 5-fluorouracil-induced apoptosis in the assay on Huh7 cells (setting [2]) is 39.4% and 55.51%; in the assay with Huh7 cells (Huh7 control (NTC) cells), 30.1%.

In the case of `CN[C@@H]1C[C@H]2O[C@@](C)([C@@H]1OC)n1c3ccccc3c3c4c(c5c6ccccc6n2c5c31)C(=O)NC4` [STS, staurosporin], the STS-induced apoptosis in the assay with Huh7 cells (setting [2]) was 53.58% and 52.3%; with Huh7 cells (Huh7 control (NTC) cells), 43.72%.

For `N.N.[Cl][Pt][Cl]` [cisplatin, reference compound], in assay [1] (FIG. 4D), the “tumor formation after serial transplantation of residual tumor into secondary mouse recipients” value was “resulted in tumor formation and recurrence”. In assay [1] (NOD-SCID mice, subcutaneous transplant, injections over 3 weeks, FIG. 4A, B), the “tumor growth / tumor volume” value was “marked reduction in tumor volume”. In assay [1] (flow cytometric analysis of residual tumors, FIG. 4C), the “CD133+ liver CSC subset in tumor” value is recorded as “enriched”. The Cisplatin-induced apoptosis in the assay with Huh7 cells (setting [2]) was 38.4% and 41.1%; in the assay with Huh7 cells (Huh7 control (NTC) cells), 26.73%.

These data come from US10000558B2, “Use of annexin A3 as a diagnostic and prognostic biomarker and therapeutic target for treating hepatocellular carcinoma” (The University of Hong Kong, priority 2013, dated 2018).
